Source: patent publication US4857508A, “Novel platelet-aggregation inhibitor peptide derivatives” (Monsanto Company, priority 1987, dated 1989)
pIC50: −log10 of the molar value. Like-named read-outs stand apart in the source and are kept apart here. Non-standard residues stand in square brackets, D forms with d. Residues, ends and D or L forms follow the SMILES beside them.

Legend:
washed human platelets = washed human platelets (Homo sapiens, UniProt P05106+P08514); assay: Inhibition of thrombin-induced platelet aggregation in washed human platelets; assay type: cell-based; details: for inhibition at 100 µM: peptide 10^-4 M; for pIC50: linear regression of dose response curve
washed human platelets, sequence (P08514 32-1039): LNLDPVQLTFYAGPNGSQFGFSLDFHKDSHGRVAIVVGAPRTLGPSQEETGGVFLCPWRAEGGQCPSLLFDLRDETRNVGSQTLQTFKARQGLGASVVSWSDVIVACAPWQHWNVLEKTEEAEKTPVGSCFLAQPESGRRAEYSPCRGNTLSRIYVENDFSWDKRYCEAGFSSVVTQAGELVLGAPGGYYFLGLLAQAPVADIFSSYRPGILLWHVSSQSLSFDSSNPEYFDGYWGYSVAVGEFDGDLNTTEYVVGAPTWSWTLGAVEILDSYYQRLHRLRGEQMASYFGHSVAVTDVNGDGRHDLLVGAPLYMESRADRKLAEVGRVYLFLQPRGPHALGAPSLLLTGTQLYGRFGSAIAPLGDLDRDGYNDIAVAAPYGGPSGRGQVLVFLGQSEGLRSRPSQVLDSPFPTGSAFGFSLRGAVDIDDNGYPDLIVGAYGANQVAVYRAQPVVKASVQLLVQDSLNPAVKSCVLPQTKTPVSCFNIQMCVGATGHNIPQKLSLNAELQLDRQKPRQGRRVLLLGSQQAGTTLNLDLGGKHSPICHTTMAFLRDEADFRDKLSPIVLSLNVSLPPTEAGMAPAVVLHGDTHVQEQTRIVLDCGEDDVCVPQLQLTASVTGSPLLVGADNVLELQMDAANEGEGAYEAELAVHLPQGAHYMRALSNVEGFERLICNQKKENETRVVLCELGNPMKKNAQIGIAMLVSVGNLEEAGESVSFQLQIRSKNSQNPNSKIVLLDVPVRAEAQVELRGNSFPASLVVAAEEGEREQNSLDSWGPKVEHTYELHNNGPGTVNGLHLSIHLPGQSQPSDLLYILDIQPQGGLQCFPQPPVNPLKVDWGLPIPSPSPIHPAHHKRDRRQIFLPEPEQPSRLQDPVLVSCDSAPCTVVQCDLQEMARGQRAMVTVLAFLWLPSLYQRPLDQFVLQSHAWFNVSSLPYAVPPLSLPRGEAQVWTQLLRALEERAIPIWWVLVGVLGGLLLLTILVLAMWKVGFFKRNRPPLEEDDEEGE
washed human platelets, sequence (P05106 27-788): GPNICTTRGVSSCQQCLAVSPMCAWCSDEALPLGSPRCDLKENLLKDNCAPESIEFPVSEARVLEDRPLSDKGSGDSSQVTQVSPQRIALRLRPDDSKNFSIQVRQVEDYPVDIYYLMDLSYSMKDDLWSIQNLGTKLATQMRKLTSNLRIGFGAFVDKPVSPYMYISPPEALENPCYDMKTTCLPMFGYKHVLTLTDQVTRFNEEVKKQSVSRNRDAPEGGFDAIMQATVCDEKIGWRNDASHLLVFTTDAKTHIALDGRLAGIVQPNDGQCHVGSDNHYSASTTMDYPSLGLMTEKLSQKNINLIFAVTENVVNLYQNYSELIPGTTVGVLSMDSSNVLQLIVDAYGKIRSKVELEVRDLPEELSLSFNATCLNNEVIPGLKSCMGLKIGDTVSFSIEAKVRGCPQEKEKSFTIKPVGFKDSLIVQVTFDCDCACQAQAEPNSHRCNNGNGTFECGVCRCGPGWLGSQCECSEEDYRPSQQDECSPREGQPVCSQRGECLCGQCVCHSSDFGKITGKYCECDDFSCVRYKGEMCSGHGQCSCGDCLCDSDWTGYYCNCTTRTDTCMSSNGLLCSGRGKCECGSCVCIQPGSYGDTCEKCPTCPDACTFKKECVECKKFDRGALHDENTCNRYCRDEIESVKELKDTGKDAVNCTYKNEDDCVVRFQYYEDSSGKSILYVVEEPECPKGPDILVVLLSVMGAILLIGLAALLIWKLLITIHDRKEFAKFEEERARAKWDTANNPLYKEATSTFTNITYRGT
Description: In one assay, the peptides are tested for their inhibition of thrombin-induced platelet aggregation in washed human platelets. The % inhibition is determined for the test peptide by comparing the extent of platelet aggregation in the presence and absence of the peptide.
Platelet Preparation: 60 ml of whole blood is freshley drawn and anticoagulated with 1/10th volume of CCD (100 mM Na Citrate and 136 mM glucose, pH 6.5 with HCl) at room temperature (RT). The blood is divided into 2 disposable 60 ml plastic centrifuge tubes and centrifuged for 3 minutes at 1000×g, allowing the centrifuge to coast to a stop (no brake). The platelet rich plasma (PRP) is withdrawn, being careful that no white cells are taken and is placed in a 60 ml centrifuge tube. The tube is immediately placed on ice for 15 minutes. After the 15 minutes at 0° C., 1/2 volume of ice cold CCD is added (i.e. 15 ml CCD/30 ml of PRP). The tube is mixed and the contents are divided equally into two centrifuge tubes. These are then centrifuged at 0° C. for 10 minutes at 900×g (no brake). The supernatant is carefully poured off. The platelet pellet is gently resuspended in 1/2 the original volume of PRP in a 0° C. modified Tangen-Hepes-BSA buffer, pH 7.4, consisting of 145 mM NaCl, 5 mM KCl, 0.05 mM CaCl2, 0.1 mM MgCl2, 11 mM glucose, 15 mM Hepes (N-2-hydroxyethylpiperazine-N'-2-ethanesulfonic acid), 1 mg/ml bovine serum albumin, (pH adjusted with NaOH). The resuspended pellets are combined into 1 centrifuge tube and incubated undisturbed at 37° C. for 30 minutes. After the incubation, the platelet suspension is removed and an aliquot is quickly counted in a hemocytometer or a Coulter® Counter (Coulter Electronics, Hialeah, Fla.). The platelet count is adjusted to 3×10^8 cells/ml with the Tangen-Hepes-BSA buffer.
Compound Testing: Aggregation studies are accomplished using a Payton aggregometer (Payton Scientific, Inc., Buffalo, N.Y.). […] All compounds are diluted to a working concentration of 10^-3 M with double distilled water. The reaction mixture consisted of 400 μl of 3×10^8 /ml washed platelets, 50 μl of buffer (control) or test compound at 10^-3 M with a final concentration of 10^-4 M. Platelets, test compound or buffer are placed in cuvettes in the aggregometer for a 1 minute preincubation before adding thrombin. 50 μl of 0.5 U/ml thrombin is added to cuvettes and the aggregation is monitored for 1 minute, which is the time for maximal aggregation of the platelets. All compounds are run in duplicate. The entire test is run within 3 hours, since this is the maximal viability of the platlets.

[1] = target: human platelets in platelet-rich plasma (Homo sapiens, UniProt P05106+P08514); assay: In-vitro human platelet aggregation in platelet-rich plasma (PRP), ADP-induced; assay type: cell-based; details: for pIC50: linear regression of dose response curve
human platelets in platelet-rich plasma, sequence (P08514 32-1039): as the sequence (P08514 32-1039) above
human platelets in platelet-rich plasma, sequence (P05106 27-788): as the sequence (P05106 27-788) above
Description: In another assay, platelet aggregation is examined in platelet-rich plasma which also is rich in fibrinogen and other plasma proteins.
The syringe is rotated carefully as blood is being drawn to mix the citrate. Platelet-rich plasma (PRP) is prepared by centrifugation at 100×g for 10 minutes at room temperature, allowing the centrifuge to coast to a stop without braking. The PRP is removed from the blood with a plastic pipette and placed in a plastic, capped, 50 ml Corning conical sterile centrifuge tube. The tube is capped and placed at room temperature. Platelet poor plasma (PPP) is prepared by centrifuging the remaining blood at 2000×g for 15 minutes at room temperature allowing the centrifuge to coast to a stop without braking. The PRP is adjusted with PPP to a count of 2-3×10^8 platelets per ml. 400 μl of the PRP preparation and 50 μl of the compound to be tested or saline were preincubated for 1 minute at 37° C. in a Payton aggregometer (Payton Scientific, Inc., Buffalo, NY). 50 μl of adenosine 5'diphosphate (ADP) (50 μM) is added to the cuvettes and the aggregation is monitored for 1 minute. All compounds are tested in duplicate. The entire procedure is run within 3 hours, since this is the maximal viability of the platelets. The saline instead of compound is used to determine the maximal aggregation.

[2] = system: collagen induced thrombocytopenia (platelet aggregation); assay: In vivo rat thrombocytopenia (collagen induced); details: for % Inhibition at 1 mg/kg: collagen 60 μg/kg; for inhibition in the in vivo thrombocytopenia assay: dose not printed there
Description: In yet another test, the effect of the peptide on collagen induced thrombocytopenia (platelet aggregation) is measured in vivo in the art. Again, the % inhibition is determined for the test peptide and compared against a saline or ethanol vehicle in the absence of peptide.
Male rats (Charles River, CRL:CD(SD), 400-450 g) were used. The rats were anesthetized with Na pentabarbital (65 mg/kg, Vet Labs, Limited, Inc., Lenexa, KA). Two incisions were made to expose both jugular veins. Using an infusion pump (Harvard Apparatus, South Natick, Mass.) and a 5 cc syringe with a 19 g. butterfly, the test compound or vehicle was infused into the left jugular vein at a rate of 0.39 ml/min for 3 min. After 2 min of compound/vehicle infusion, collagen (60 μg/kg) (Helena Laboratories,Beaumont, TX) was injected with a 1 ml syringe into the right jugular vein. The body cavity was opened and the vena cava was exposed for blood sampling. One min after the collagen injection, compound infusion was stopped and blood was sampled from the vena cava (within 30 sec) with a 3 cc syringe containing […] of 4.5% EDTA/Tris (0.1M) (pH 7.35) plus 150 μM indomethacin. Platelet rich plasma (PRP) was prepared by centrifuging the blood at 126× g for 10 min. Five μl of PRP was counted in 20 ml of Isoton® III in a Coulter Counter. Percent inhibition of collagen induced aggregation was calculated by comparison of the number of platelets counted in treated animals with numbers for animals receiving no collagen and with counts from animals receiving vehicle and collagen. Estimation of potency was based on inhibition of collagen-induced thrombocytopenia.
Four animals were tested with each compound to give the data shown.

Molecule	inhibition at 100 µM (washed human platelets)	pIC50 (washed human platelets)	pIC50 ([1]; read-out: IC50)	inhibition at 100 µM ([1]; peptide 10^-4 M)	other results
CCOc1ccc(C[C@H](NC(=O)[C@H](CC(=O)O)NC(=O)CNC(=O)[C@@H](N)CCCNC(=N)N)C(N)=O)cc1 [RGD(O--ethyl-Tyr)--NH2, Arg-Gly-Asp-(O-ethyltyrosine)-amide] (H-RGDY(Et)-NH2)	54%	–	–	–	–
COc1ccc(C[C@H](NC(=O)[C@H](CC(=O)O)NC(=O)CNC(=O)[C@H](CCCNC(=N)N)NC(C)=O)C(N)=O)cc1 [Ac--RGD(O--methyl-Tyr)--NH2, acetyl-Arg-Gly-Asp-(O-methyltyrosine)-amide] (Ac-RGDY(Me)-NH2)	78%	4.70	4.70	100%	% Inhibition at 1 mg/kg ([2]; rat, i.v. infusion): 86%
COc1ccc(C[C@H](NC(=O)[C@H](CC(=O)O)NC(=O)CNC(=O)[C@@H](CCCNC(=N)N)NC(C)=O)C(N)=O)cc1 [Ac--(D-Arg)GD(O--methyl-Tyr)--NH2, acetyl-(D-Arg)-Gly-Asp-(O-methyltyrosine)-amide] (Ac-[dR]GDY(Me)-NH2)	–	–	–	71%	–
CC(=O)N[C@@H](CCCN=C(N)N)C(=O)NCC(=O)N[C@@H](CC(=O)O)C(=O)N[C@@H](Cc1ccc(O)cc1)C(N)=O [Ac--RGDY--NH2] (Ac-RGDY-NH2)	–	4.30	–	–	–
CC(=O)N[C@@H](CCCNC(=N)N)C(=O)NCC(=O)N[C@@H](CC(=O)O)C(=O)N[C@@H](Cc1ccc(O)cc1)C(N)=O [Ac--RGDY--NH2] (Ac-RGDY-NH2)	68%	–	–	48%	inhibition in the in vivo thrombocytopenia assay [2]: 85%; % Inhibition at 1 mg/kg ([2]; rat, i.v. infusion): 85%
Arg-Gly-Asp-(p-phenyl-phenylalanine)-amide [RGD(p-phenyl-Phe)--NH2]	–	–	–	–	% Inhibition at 10^-4 M ([1]; peptide 10^-4 M): 100%
N=C(N)NCCC[C@H](NC(=O)CN)C(=O)NCC(=O)N[C@@H](CC(=O)O)C(=O)N[C@@H](CO)C(=O)N1CCC[C@H]1C(N)=O [GRGDSP--NH2, reference compound]	55%	–	–	23%	–
COc1ccc(C[C@H](NC(=O)[C@H](CC(=O)O)NC(=O)CNC(=O)[C@@H](N)CCCNC(=N)N)C(N)=O)cc1 [RGD(O--methyl-Tyr)--NH2, Arg-Gly-Asp-(O-methyltyrosine)-amide] (H-RGDY(Me)-NH2)	79%	4.70	4.52	100%	–
COc1cc(C)c(CC(NC(=O)[C@H](CC(=O)O)NC(=O)CNC(=O)[C@@H](N)CCCNC(=N)N)C(N)=O)c(C)c1 (stereo partly drawn) [RGD(2,6-dimethyl-O--methyl-Tyr)--NH2, Arg-Gly-Asp-(2,6-dimethyl-O-methyltyrosine)amide]	78%	4.70	–	53%	pIC50 [1]: 4.05
COc1ccc(CC(NC(=O)[C@H](CC(=O)O)NC(=O)CNC(=O)[C@@H](N)CCCNC(=N)N)C(N)=O)c2ccccc12 (stereo partly drawn) [RGD(4-methoxy-1-naphthyl-Ala)--NH2, Arg-Gly-Asp-(4-methoxy-1-naphthylalanine)-amide]	–	–	5.00	100%	–

More lines, main results first:

inhibition at 100 µM (washed human platelets)	pIC50 (washed human platelets)	pIC50 ([1]; read-out: IC50)	inhibition at 100 µM ([1]; peptide 10^-4 M)	Molecule	other results
–	5.00	4.70	–	NC(=O)[C@H](Cc1ccccc1)NC(=O)[C@H](CC(=O)O)NC(=O)CNC(=O)[C@@H](N)CCCN=C(N)N [RGDF--NH2, reference compound] (H-RGDF-NH2)	–
45%	–	–	–	N=C(N)NCCC[C@H](N)C(=O)NCC(=O)N[C@@H](CC(=O)O)C(=O)N[C@@H](Cc1ccc(O)cc1)C(N)=O [RGDY--NH2, reference compound] (H-RGDY-NH2)	inhibition in the in vivo thrombocytopenia assay [2]: 19%; % Inhibition at 1 mg/kg ([2]; rat, i.v. infusion): 19 ± 12%; Maximum Inhibition % ([2]; rat, i.v. infusion, collagen induced thrombocytopenia): 20%
90%	5.00	4.70	100%	COc1ccc(C[C@H](NC(=O)[C@H](CC(=O)O)NC(=O)CNC(=O)CCCCNC(=N)N)C(N)=O)cc1 [des-NH2 --RGD(O--methyl-Tyr)--NH2, des-amino-Arg-Gly-Asp-(O-methyltyrosine)-amide]	–
71%	–	–	25%	N=C(N)NCCC[C@H](N)C(=O)NCC(=O)N[C@@H](CC(=O)O)C(=O)N[C@@H](CO)C(=O)O [RGDS, Arg-Gly-Asp-Ser, reference compound]	–
77%	–	–	100%	N=C(N)NCCC[C@H](N)C(=O)NCC(=O)N[C@@H](CC(=O)O)C(=O)N[C@@H](Cc1ccccc1)C(N)=O [RGDF--NH2, reference compound] (H-RGDF-NH2)	–
82%	5.00	4.70	100%	COc1ccc(C[C@H](NC(=O)[C@H](CC(=O)O)NC(=O)CNC(=O)CCCCCNC(=N)N)C(N)=O)cc1 [des-amino-(homoarginine)-Gly-Asp-(O-methyltyrosine)-amide]	–
